pIC50: −log10 of the molar value.
Experiments:
RAW264.7 [1] = assay: Anti-inflammatory activity in mouse RAW264.7 cells assessed as inhibition of LPS-induced thromboxane B2 production incubated for 48 hrs by ELISA method; assay type: functional, cell-based; conditions: RAW264.7, 48 h
RAW264.7 [2] = assay: Anti-inflammatory activity in mouse RAW264.7 cells assessed as inhibition of LPS-induced prostaglandin E2 production incubated for 48 hrs by ELISA method; assay type: functional, cell-based; conditions: RAW264.7, 48 h
MCF7 = assay: Cytostatic activity against human MCF7 cells incubated for 6 days by alamar blue reagent based resazurin metabolism assay; assay type: functional, cell-based; conditions: MCF7, 144 h
HT-29 = assay: Cytostatic activity against human HT-29 cells incubated for 72 hrs by alamar blue reagent based resazurin metabolism assay; assay type: functional, cell-based; conditions: HT-29, 72 h
RAW264.7 [3] = assay: Anti-inflammatory activity in mouse RAW264.7 cells assessed as inhibition of LPS-induced thromboxane B2 production at 10 uM incubated for 48 hrs by ELISA method; assay type: functional; conditions: RAW264.7, 48 h
RAW264.7 [4] = assay: Anti-inflammatory activity in mouse RAW264.7 cells assessed as inhibition of LPS-induced prostaglandin E2 production at 10 uM incubated for 48 hrs by ELISA method; assay type: functional; conditions: RAW264.7, 48 h

SMILES	pIC50 (RAW264.7 [1])	pIC50 (RAW264.7 [2])	pIC50 (MCF7)	pIC50 (HT-29)	inhibition at 10 µM (RAW264.7 [3])	inhibition at 10 µM (RAW264.7 [4])
C=C1C(=O)O[C@@H]2C[C@](C)(O)C3=CC[C@@](C)(O)[C@@H]3C[C@H]12	4.43	4.67	–	–	–	–
C=C1C(=O)O[C@@H]2C[C@H](C)C3=CC[C@@](C)(O)[C@@H]3C[C@H]12	4.75	5.19	4.62	4.55	–	–
C=C1C(=O)O[C@@H]2C[C@H](C)[C@]34O[C@H]3C[C@@](C)(O)[C@@H]4C[C@H]12	4.93	5.52	4.92	4.73	–	–
C=C1C(=O)O[C@@H]2C[C@H](C)[C@]34O[C@H]3C[C@@](C)(OC(C)=O)[C@@H]4C[C@H]12	5.19	6.15	5.16	4.85	–	–
C=C1C(=O)O[C@@H]2C[C@H](C)[C@]3(O)[C@@H](C[C@H]12)[C@](C)(OC(C)=O)C[C@@H]3O	4.46	4.98	4.57	4.53	–	–
C=C1C(=O)O[C@@H]2C[C@H](C)[C@]34O[C@](C)(C[C@@H]3OC(C)=O)[C@@H]4C[C@H]12	4.41	4.79	< 4.19	< 4.19	–	–
C=C1C(=O)O[C@@H]2CC(C)=C3CC[C@@](C)(O)[C@@H]3C[C@H]12	4.89	5.49	4.86	4.74	–	–
C=C1C(=O)O[C@@H]2CC(C)=C3CC[C@@](C)(OC(C)=O)[C@@H]3C[C@H]12	5.59	5.46	5.10	5.32	–	–
C=C(CO)[C@@H]1CCC(C)=C([C@H](C)CCC(=O)O)C1	< 4.10	< 4.10	< 4.10	< 4.10	–	–
C[C@]12CCC(=O)C=C1CC[C@@H]1[C@@H]2[C@@H](O)C[C@@]2(C)[C@H]1CC[C@]2(O)C(=O)CO [HYDROCORTISONE]	–	–	–	–	42%	21%
C=C1C(=O)O[C@@H]2C[C@H](C)C(CCC(C)=O)=CC[C@H]12 [TOMENTOSIN]	4.80	5.14	4.58	4.25	–	–

Reference: ChEMBL document CHEMBL3593199, “Guaianolides and a seco-Eudesmane from the Resinous Exudates of Cushion Bush (Leucophyta brownii) and Evaluation of Their Cytostatic and Anti-inflammatory Activity” (J Nat Prod, 2015)
